# Reference: BindingDB's records for doi:10.1021/jm9600095 (Institut De Chimie Des Substances Naturelles Cnrs, 1997)
# pEC50: −log10 of the molar value.
# Assay: Reverse transcriptase activity was measured in the culture supernatant, concentration that reduces by 50% the HIV produced in the supernatant.
row,Structure (SMILES),pEC50
1,"Cc1cn(C2CC(N=[N+]=[N-])C(CO)O2)c(=O)n(CC2CC(CO)=NO2)c1=O (stereo not given) [1-(4-Azido-5-hydroxymethyl-tetrahydro-furan-2-yl)-3-(3-hydroxymethyl-4,5-dihydro-isoxazol-5-ylmethyl)-5-methyl-1H-pyrimidine-2,4-dione]",5.89
2,"Cc1cn(C2CC(N=[N+]=[N-])C(CO)O2)c(=O)n(CCN=[N+]=[N-])c1=O (stereo not given) [3-(2-Azido-ethyl)-1-(4-azido-5-hydroxymethyl-tetrahydro-furan-2-yl)-5-methyl-1H-pyrimidine-2,4-dione]",5.82
3,"Cc1cn(C2CC(n3c(=O)c(C)cn(C4CC(N=[N+]=[N-])C(CO)O4)c3=O)C(CO)O2)c(=O)[nH]c1=O (stereo not given) [1-(4-Azido-5-hydroxymethyl-tetrahydro-furan-2-yl)-3-[2-hydroxymethyl-5-(5-methyl-2,4-dioxo-3,4-dihydro-2H-pyrimidin-1-yl)-tetrahydro-furan-3-yl]-5-methyl-1H-pyrimidine-2,4-dione]",7.00
4,"Cc1cn(C2CC(N=[N+]=[N-])C(CO)O2)c(=O)n(CCn2c(=O)c(C)cn(C3CC(N=[N+]=[N-])C(CO)O3)c2=O)c1=O (stereo not given) [1-(4-azido-5-hydroxymethyltetrahydro-2-furanyl)-3-{2-[1-(4-azido-5-hydroxymethyltetrahydro-2-furanyl)-5-methyl-2,4-dioxo-1,2,3,4-tetrahydro-3-pyrimidinyl]ethyl}-5-methyl-1,2,3,4-tetrahydro-2,4-pyrimidinedione]",5.85
5,"CCOP(=O)(Cn1c(=O)c(C)cn(C2CC(N=[N+]=[N-])C(CO)O2)c1=O)OCC (stereo not given) [[3-(4-Azido-5-hydroxymethyl-tetrahydro-furan-2-yl)-5-methyl-2,6-dioxo-3,6-dihydro-2H-pyrimidin-1-ylmethyl]-phosphonic acid diethyl ester]",5.33
6,"Cc1cn(C2CC(N=[N+]=[N-])C(CO)O2)c(=O)n(CCO)c1=O (stereo not given) [1-(4-Azido-5-hydroxymethyl-tetrahydro-furan-2-yl)-3-(2-hydroxy-ethyl)-5-methyl-1H-pyrimidine-2,4-dione]",7.05
7,"Cc1cn(C2CC(N=[N+]=[N-])C(CO)O2)c(=O)n(CCCCCCO)c1=O (stereo not given) [1-(4-Azido-5-hydroxymethyl-tetrahydro-furan-2-yl)-3-(6-hydroxy-hexyl)-5-methyl-1H-pyrimidine-2,4-dione]",5.92
8,"Cc1cn(C2CC(N=[N+]=[N-])C(CO)O2)c(=O)n(CC2COC(C)(C)O2)c1=O (stereo not given) [1-(4-Azido-5-hydroxymethyl-tetrahydro-furan-2-yl)-3-(2,2-dimethyl-[1,3]dioxolan-4-ylmethyl)-5-methyl-1H-pyrimidine-2,4-dione]",4.89

# More lines, now with the values ahead:
row,pEC50,Structure (SMILES)
1,4.19,"C=CCn1c(=O)c(C)cn(C2CC(N=[N+]=[N-])C(CO)O2)c1=O (stereo not given) [3-Allyl-1-(4-azido-5-hydroxymethyl-tetrahydro-furan-2-yl)-5-methyl-1H-pyrimidine-2,4-dione]"
2,4.85,"CCOC(=O)Cn1c(=O)c(C)cn(C2CC(N=[N+]=[N-])C(CO)O2)c1=O (stereo not given) [[3-(4-Azido-5-hydroxymethyl-tetrahydro-furan-2-yl)-5-methyl-2,6-dioxo-3,6-dihydro-2H-pyrimidin-1-yl]-acetic acid ethyl ester]"
3,3.85,"COCCOCn1c(=O)c(C)cn(C2CC(N=[N+]=[N-])C(CO)O2)c1=O (stereo not given) [1-(4-Azido-5-hydroxymethyl-tetrahydro-furan-2-yl)-3-(2-methoxy-ethoxymethyl)-5-methyl-1H-pyrimidine-2,4-dione]"
4,< 4.54,"COc1nc(=O)n(CCn2c(=O)c(C)cn(C3CC(N=[N+]=[N-])C(CO)O3)c2=O)cc1C (stereo not given) [1-(4-Azido-5-hydroxymethyl-tetrahydro-furan-2-yl)-3-[2-(4-methoxy-5-methyl-2-oxo-2H-pyrimidin-1-yl)-ethyl]-5-methyl-1H-pyrimidine-2,4-dione]"
5,6.92,"Cc1cn(C2CC(N=[N+]=[N-])C(CO)O2)c(=O)n(CCCO)c1=O (stereo not given) [1-(4-Azido-5-hydroxymethyl-tetrahydro-furan-2-yl)-3-(3-hydroxy-propyl)-5-methyl-1H-pyrimidine-2,4-dione]"
6,5.82,"CCOC(Cn1c(=O)c(C)cn(C2CC(N=[N+]=[N-])C(CO)O2)c1=O)OCC (stereo not given) [1-(4-Azido-5-hydroxymethyl-tetrahydro-furan-2-yl)-3-(2,2-diethoxy-ethyl)-5-methyl-1H-pyrimidine-2,4-dione]"
7,6.30,"Cc1cn(C2CC(N=[N+]=[N-])C(CO)O2)c(=O)n(N)c1=O (stereo not given) [3-Amino-1-(4-azido-5-hydroxymethyl-tetrahydro-furan-2-yl)-5-methyl-1H-pyrimidine-2,4-dione]"
